# Legend:
# [1] = Stability study: histidine challenge, radiochemical composition by HPLC on RP18 column; assay type: physicochemical; conditions: stirred 1 hour at 50° C.
# Experimental: (§1) The complexes are stable, so that at room temperature, no exchange of chelating agents for histidine is carried out. The. chelates and tricarbonyl-Tc-99m and Re-tricarbonyl complexes that are described in this invention are thus clearly better suited for diagnostic and therapeutic purposes than the previously known systems. A special advantage of the compounds according to the invention consists in the fact that their syntheses can be directed without using sulfur protective groups. This makes their synthesis very simple, and in addition, such compounds that are described according to the invention in particular offer the advantage that after radiochemical labeling, no further foreign molecules are contained in the solutions that are to be administered intravenously for radiodiagnosis or radiotherapy. Such foreign molecules frequently disrupt the biodistribution of the radiopharmaceutical agent and can adversely affect the diagnostic information content of the SPECT imaging. In addition, the labelings on such ligands or their coupling products can be performed on substances that accumulate selectively on diseased tissues under very mild conditions. […]
# [2] = Incubation of the Tc-99m-tricarbonyl complex in serum; assay type: in vitro ADME; conditions: 26 hours of incubation in serum
# Experimental: as §1
radiochemical composition (HPLC chromatogram) after histidine challenge ([1]; 20 mg of histidine),radiochemical composition (HPLC chromatogram) after histidine challenge ([1]; 10 mg of histidine),decomposition products after incubation in serum [2],Substance
unchanged,–,–,Tc-99m-Tricarbonyl Complex of {2-(1H-pyrazol1-yl)-ethylimino}-diacetic Acid-monopropylamide [Example 7b]
–,unchanged,no decomposition products,Tc-99m-Tricarbonyl complex of N-(hydroxycarboxy-methyl)-N-(N′-propyl-carbamido-methyl)-S-ethyl-2-mercaptoethylamine [Example 2b]
